Columns and labels:
bladder strips = test: Effects on the bladder muscle in vitro (relaxant effect on bladder strips); parameters: species or system guinea pigs; details: Cavia porcellus; guinea pig bladder strips; contractions triggered by electrical stimulation or KCl depolarization; read-out: A IC50 (concentration which reduces contraction of bladder strips by 50%)
Description: Effects on the bladder muscle in vitro
In these experiments, the IC50 value denotes the concentration of a substance which reduces contraction by 50%.
Male albino guinea pigs weighing about 400 g are killed painlessly by a blow to the neck and quickly exsanguinated. The abdominal cavity is opened and the bladder is carefully resectioned. It is placed in a Petri dish filled with Krebs solution, and surrounding connective and fatty tissue is removed. Two horizontal strips of tissue are prepared. With the aid of two threads which are attached to both ends of the strips of tissue, the strips are suspended in an organ bath. They are fastened at the bottom to a hook and at the top to an electric force transducer which is able to measure precisely contractions of 0-10 g in strength. The measured contractions are amplified by means of a bridge amplifier and are recorded with a thermal plotter. The signals obtained can also be integrated electronically on another plotter channel in order to quantify in-phase contractions.
(§1) The organ baths are filled with Krebs solution at 37° C. through which an O2 /CO2 mixture is bubbled thoroughly and which has the following composition (mmol/1): NaCl 118.4; KCl 4.7; CaCl2 2.5; KH2 PO4 1.2; MgSO4 1.2; NaHCO3 25; glucose 11.
The strips are stretched with a basic tone of about 0.5 g. After an equilibration time of about 30 minutes, one of the two strips is stimulated electrically every minute using built-in electrodes (period of stimulation 2 seconds, 30 Hz, 0.5 ms pulse width, 10 volts) in order to trigger short-term contractions. The other strip is made to exert in-phase contraction by depolarization (addition of […] KCl to the organ bath). Both the contractions triggered by electrical stimulation and those initiated by depolarization and occurring in the strips of bladder muscle quickly reach a plateau. As soon as this plateau is reached ("100% value"), the test substance is added to the organ bath, initially at 10w concentrations, for example 10^-8 M, and then in increasing doses at regular intervals, until the contractions reduce or the final concentration of 10^-4 M is reached. Each test substance is tested 2-4 times in this way.
(§2) For purposes of evaluation, the height of the contractions registered on the plotter paper is measured for each experiment after the action of each test concentration added. The IC50 value can be calculated in this way in relation to the original height of contractions before the addition of substance (100%). All of the IC50 values are shown in column A of Table 1.

rings of aorta = test: Effects on vessel muscle in vitro (aorta rings, KCl depolarization); parameters: species or system rats; details: rat aorta rings contracted with 25 mM KCl; read-out: B IC50 (rings of aorta)
Description: Effects on vessel muscle in vitro
Male rats weighing about 300 g are killed painlessly by a blow to the neck and quickly exsanguinated. The thoracic cavity is opened and the aorta is carefully resectioned. It is placed in a Petri dish filled with Krebs solution, and surrounding connective and fatty tissue is removed. Two rings are prepared. The rings are each suspended in an organ bath. They are attached at the bottom to a hook and at the top to an electrical force transducer which is able to measure precisely contractions of 0-10 grams in strength. The measured contractions are amplified by means of a bridge amplifier and recorded with a thermal plotter.
as §1
The rings are stretched with a basic tone of about 0.5 g. After an equilibration time of about 30 minutes, the rings are caused to undergo contraction by depolarization (addition of 25 mM KCl to the organ bath). The contractions of the rings of aorta, triggered by the depolarization, quickly reach a plateau. As soon as this plateau is reached ("100% value"), the test substance is added to the organ bath, initially at low concentrations, for example 10^-8 M, and then in increasing doses at regular intervals, until the contractions reduce or the final concentration of 10^-4 M is reached. Each test substance is tested 2-4 times in this way.
as §2, with “(100%).” for “(100%). All of the”, “B” for “A”

[1] = test system: arterial blood pressure, conscious rat; test: Effects on blood pressure in vivo, conscious rat; parameters: species or system Sprague-Dawley rats
Description: Effects on blood pressure in vivo
The rats were fasted overnight before the day of the experiment.
On the day of experiment, the rats were brought into the laboratory and their blood pressure and heart rate was recorded over about 30 minutes. The test substances, suspended in 0.5% methylcellulose, were then administered perorally via a stomach tube (volume: 3 ml/kg of body weight) and blood pressure and heart rate were measured over the next 6 hours. The percentage changes in the measured values in relation to the initial values were calculated and were determined for groups of 3-4 similarly treated animals.

CC(O)(C(=O)Nc1ccc(C(=O)c2ccccc2)s1)C(F)(F)F (stereo not shown) [Example 1, N-[5-(Phenylcarbonyl)thien-2-yl]-3,3,3-tri-fluoro-2-hydroxy-2-methylpropanamide]
IC50 (bladder strips): 100 µM
IC50 (rings of aorta): 2.5 µM
Reduction in diastolic pressure, % of initial value ([1]; 6 mg/kg peroral, 30 min): 3 % of initial value
Reduction in diastolic pressure, % of initial value ([1]; 6 mg/kg peroral, 60 min): 2 % of initial value
Reduction in diastolic pressure, % of initial value ([1]; 6 mg/kg peroral, 120 min): 4 % of initial value

CC(O)(C(=O)Nc1ncc(C(=O)c2ccccc2)s1)C(F)(F)F (stereo not shown) [Example 2, N-[5-(Phenylcarbonyl)thiazol-2-yl]-3,3,3-trifluoro-2-hydroxy-2-methylpropanamide]
IC50 (bladder strips): 100 µM
IC50 (rings of aorta): 20 µM
Reduction in diastolic pressure, % of initial value ([1]; 6 mg/kg peroral, 15 min): 2 % of initial value
Reduction in diastolic pressure, % of initial value ([1]; 6 mg/kg peroral, 30 min): 8 % of initial value
Reduction in diastolic pressure, % of initial value ([1]; 6 mg/kg peroral, 60 min): 5 % of initial value

CC(O)(C(=O)Nc1nnc(C(=O)c2ccccc2)s1)C(F)(F)F (stereo not shown) [Example 3, N-[5-(Phenylcarbonyl)-1,3,4-thiadiazol-2-yl]-3,3,3-trifluoro-2-hydroxy-2-methylpropanamide]
IC50 (bladder strips): 50 µM
IC50 (rings of aorta): 10 µM
Reduction in diastolic pressure, % of initial value ([1]; 6 mg/kg peroral, 30 min): 3 % of initial value
Reduction in diastolic pressure, % of initial value ([1]; 6 mg/kg peroral, 60 min): 2 % of initial value
Reduction in diastolic pressure, % of initial value ([1]; 6 mg/kg peroral, 120 min): 4 % of initial value

CC(O)(C(=O)Nc1ccc(S(=O)(=O)c2ccccc2)s1)C(F)(F)F (stereo not shown) [Example 4, N-[5-(Phenylsulfonyl)thien-2-yl]-3,3,3-trifluoro-2-hydroxy-2-methylpropanamide]
IC50 (bladder strips): 1.7 µM
IC50 (rings of aorta): 1.2 µM
Reduction in diastolic pressure, % of initial value ([1]; 6 mg/kg peroral, 15 min): 1 % of initial value
Reduction in diastolic pressure, % of initial value ([1]; 6 mg/kg peroral, 30 min): 5 % of initial value
Reduction in diastolic pressure, % of initial value ([1]; 6 mg/kg peroral, 60 min): 4 % of initial value
Reduction in diastolic pressure, % of initial value ([1]; 6 mg/kg peroral, 120 min): 6 % of initial value
Reduction in diastolic pressure, % of initial value ([1]; 18 mg/kg peroral, 15 min): 0 % of initial value
Reduction in diastolic pressure, % of initial value ([1]; 18 mg/kg peroral, 30 min): 8 % of initial value
Reduction in diastolic pressure, % of initial value ([1]; 18 mg/kg peroral, 60 min): 10 % of initial value
Reduction in diastolic pressure, % of initial value ([1]; 18 mg/kg peroral, 120 min): 15 % of initial value

CC1(C)Oc2ccc(C#N)cc2C(N2CCCC2=O)C1O (stereo not shown) [V, cromakalim, reference compound]
IC50 (bladder strips): 1 µM
IC50 (rings of aorta): 0.065 µM
Reduction in diastolic pressure, % of initial value ([1]; 1 mg/kg peroral, 15 min): 53 % of initial value
Reduction in diastolic pressure, % of initial value ([1]; 1 mg/kg peroral, 30 min): 49 % of initial value
Reduction in diastolic pressure, % of initial value ([1]; 1 mg/kg peroral, 60 min): 40 % of initial value
Reduction in diastolic pressure, % of initial value ([1]; 1 mg/kg peroral, 120 min): 26 % of initial value

From US5627198A, “Heterocyclic amides” (Hafslund Nycomed Pharma Aktiengesellschaft, priority 1994, dated 1997)
